From patent publication US20230082929A1, “METHODS OF GENERATING AND USING SENESCENT-INDUCED CELLS FOR TREATMENT OF CANCER AND COMPOSITIONS RELATING THERETO” (The Wistar Institute of Anatomy and Biology, priority 2020, published 2023)

Key:
STING = STING dimerization by immunoblot in IMR90 cells; type: cell-based, human; settings: senescent IMR90 cells with HMGB2 knockdown
Procedure: Cells were lysed in 1× sample buffer (2% SDS, 10% glycerol, 0.01% bromophenol blue, 62.5 mM Tris, pH 6.8, and 0.1 M DTT) and heated to 95° C. for 10 min. Protein concentrations were determined using the protein assay dye (Bio-Rad. Cat. No: #5000006) and Nanodrop. An equal amount of total protein was resolved using SDS-PAGE gels and transferred to PVDF membranes at 110 V for 2 hours at 4° C. Membranes were blocked with 5% nonfat milk in TBS containing 0.1% Tween 20 (TBS-T) for 1 hour at room temperature. Membranes were incubated overnight at 4° C. in the primary antibodies in 4% BSA/TBS+0.025% sodium azide. Membranes were washed four times in TBS-T for 5 min at room temperature, after which they were incubated with HRP-conjugated secondary antibodies (Cell Signaling Technology. Cat. No: 7076S, 7074S) for 1 hour at room temperature. After washing four times in TBS-T for 5 min at room temperature, proteins were visualized on film after incubation with SuperSignal West Pico PLUS Chemiluminescent Substrate (Thermo Fisher Scientific. Cat. No: 34580).

2′3′-cGAMP = 2′3′-cGAMP ELISA in IMR90 cells; type: cell-based, human; settings: senescent IMR90 cells with HMGB2 knockdown
Procedure: 2′ 3′-cGAMP ELISA Kit (Cayman chemical. Cat. No:501700) was used to analyze the endogenous level of 2′ 3′-cGAMP following the manufacturer's instructions. 1×10^5 IMR90 cells were incubated in 200 μL lysis buffer (ThermoFisher, Cat. No: 78501) on ice for 30 minutes. The 2′ 3′-cGAMP ELISA was performed following the manufacturer's instructions.

TOP1cc = biological target: T1, TOP1cc (Mus musculus, UniProt Q04750); assay: Slot blot analysis of TOP1cc levels in CCF of senescent ID8-Defb29/Vegf-a cells; type: cell-based; settings: HMGB2 knockdown Cisplatin-induced senescent ID8-Defb29 Vegf-a cells
T1 construct: endogenous in cells; host or cells: UPK10 mouse ovarian cancer cells, sorted senescent and non-senescent fractions
T1 sequence (Q04750 1-767): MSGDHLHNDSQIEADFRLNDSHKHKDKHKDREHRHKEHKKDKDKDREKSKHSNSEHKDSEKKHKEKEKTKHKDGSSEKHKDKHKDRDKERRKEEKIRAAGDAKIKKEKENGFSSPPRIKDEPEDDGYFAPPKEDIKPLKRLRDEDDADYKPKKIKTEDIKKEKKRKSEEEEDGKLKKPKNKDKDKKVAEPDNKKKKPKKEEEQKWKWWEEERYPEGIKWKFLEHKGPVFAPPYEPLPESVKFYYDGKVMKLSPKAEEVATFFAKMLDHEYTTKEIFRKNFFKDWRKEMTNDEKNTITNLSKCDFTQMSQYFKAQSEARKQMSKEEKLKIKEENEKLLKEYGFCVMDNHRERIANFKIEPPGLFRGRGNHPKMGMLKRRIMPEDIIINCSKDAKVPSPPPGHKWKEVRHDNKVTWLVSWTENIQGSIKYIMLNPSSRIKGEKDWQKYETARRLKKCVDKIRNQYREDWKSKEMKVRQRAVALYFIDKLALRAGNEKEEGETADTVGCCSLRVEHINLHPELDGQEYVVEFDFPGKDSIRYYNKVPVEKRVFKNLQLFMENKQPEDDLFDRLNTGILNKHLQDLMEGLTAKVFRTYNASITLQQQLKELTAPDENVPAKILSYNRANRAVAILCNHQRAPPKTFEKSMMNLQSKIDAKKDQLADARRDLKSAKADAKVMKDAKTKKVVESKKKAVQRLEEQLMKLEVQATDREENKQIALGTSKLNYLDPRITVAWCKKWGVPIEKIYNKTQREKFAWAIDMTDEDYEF
Procedure: A CCF purification protocol was developed by modifying previous protocols (Shimizu et al., 1996; Ly et al., 2017). Briefly, 500 million senescent cells were collected, resuspended, and incubated in DMEM containing 10 μg/mL cytochalasin B for 30 minutes at 37° C. After wash once with ice-cold PBS, the cell pellet was gently dounce homogenized in ice-cold pre-chilled lysis buffer (10 mM Tris-HCl, 2 mM magnesium acetate, 3 mM CaCl2), 0.32 M sucrose, 0.1 mM EDTA, 1 mM DTT, 0.1% NP-40, 0.15 mM spermine, 0.75 mM spermidine, 10 μg/ml cytochalasin B, pH 8.5, 4° C.) with ten slow strokes of a loose-fitting pestle. Release of nuclei was confirmed by DAPI-staining and microscopy. The homogenate was fixed with 1% formaldehyde for 10 minutes, and mixed well with an equal volume of 1.6M sucrose buffer (10 mM Tris-HCl, 5 mM magnesium acetate, 0.1 mM EDTA, 1 mM DTT, 0.3% BSA, 0.15 mM spermine, 0.75 mM spermidine, pH 8.0, 4° C.). A 10 mL portion of homogenate was layered on the top of sucrose buffer gradient (20 mL and 15 mL containing 1.8M and 1.6M of sucrose, respectively) in a 50 mL tissue culture tube. The tubes were centrifuged at 1200×g for 20 minutes at 4° C. After centrifugation, the upper 3 mL of the gradient was discarded, and the next 15 mL containing CCFs was collected. […] DNA concentration was measured using Nanodrop and 5 μg DNA was used for slot blot analysis.

[1] = test system: ID8-Defb29/Vegf-a ovarian cancer; assay: In vivo orthotopic syngeneic ID8-Defb29/Vegf-a ovarian cancer mouse model
Procedure: For orthotopic syngeneic model, luciferase expressing ID8-Defb29/Vegf-a with inducible shHMGB2 cells were pretreated with 2 μM Cisplatin for 48 hours to induce CCFs. 5×10^6 cells were i.p. injected into the peritoneal cavity of C57BL/6 mouse (female, 6-8 weeks old, CRL/NCI) (Zhu et al., 2016). Animals were randomly assigned to different treatment groups (10 mice/group). The mice in control groups were fed with control rodent diet (Fisher Scientific. Cat. No: 14-726-309). For the HMGB2 knockdown groups, mice were fed with Bio-Serv™ Doxycycline Grain-Based Rodent Diet (Fisher Scientific. Cat. No: 14-727-450) to induce HMGB2 knockdown. Tumor progression was monitored twice a week using a Xenogen IVIS Spectrum in vivo bioluminescence imaging system. Images were analyzed using Live Imaging 4.0 software. Tumor-bearing mice were treated by i.p. injection with isotype control IgG or anti-PD-L1 antibody (Bio X Cell, Cat. No: B7-H1, clone 10 F.9G2, 10 mg kg^-1) every 3 days with or without simultaneous TOP1 inhibitor camptothecin treatment (Selleck Cat. No: S1288; 8 mg kg^-1). For survival analysis, the Wistar Institute IACUC guideline was followed in determining the time for ending the survival experiments (tumor burden exceeds 10% of body weight).

In the case of `CC[C@@]1(O)C(=O)OCc2c1cc1n(c2=O)Cc2cc3ccccc3nc2-1` [CPT, Camptothecin], the STING dimerization (STING) is reported as “rescued the suppression of STING dimerization”, the “2′3′-cGAMP levels” value (2′3′-cGAMP) is reported as “rescued” and the “TOP1cc levels in CCF” value (TOP1cc) is reported as “Rescue of the decrease in TOP1cc levels”. For the same molecule, the “anti-PD-L1 treatment response (tumor growth by luciferase bioluminescence)” value ([1]; HMGB2 knockdown tumors, CPT 8 mg kg-1 i.p. with anti-PD-L1 antibody 10 mg kg-1 every 3 days) was “significantly restored the anti-PD-L1 response”, the “body weight of the treated mice” value ([1]; anti-PD-L1 antibody-treated group, during treatment period) was “did not affect the body weight” and the survival of mice ([1]; mice bearing HMGB2 knockdown tumors, CPT with anti-PD-L1 antibody) was “rescued the survival”.
